Laboratory results reported in the supplement of paper PMC10307832.

How the values were obtained:
Test in all cases: relative viability (nuclei count vs DMSO), 5 days (fraction); higher = more cells survive
[1] = compound: COc1cc2ncn(-c3cc(OCc4ccccc4C(F)(F)F)c(C(N)=O)s3)c2cc1OC + CC(C)C[C@H](NC(=O)[C@H](Cc1ccccc1)NC(=O)c1cnccn1)B(O)O [Bortezomib] (partner 0.002 µM)
Outline: (§1)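 Medians of duplicate plates are given as relative viability. That measure is the nuclei count in treated wells divided by the count in vehicle wells. Counts were taken on 4× images of lung cancer cell lines in 1536-well plates, 5 days after pin-tool dosing the day after seeding with one drug alone or a fixed anchor-drug dose plus five library-drug doses (not always all listed) in √10 steps.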

[2] = compound: COc1cc2ncn(-c3cc(OCc4ccccc4C(F)(F)F)c(C(N)=O)s3)c2cc1OC + CC(=O)Nc1cccc(-n2c(=O)n(C3CC3)c(=O)c3c(Nc4ccc(I)cc4F)n(C)c(=O)c(C)c32)c1 [Trametinib] (partner 0.02 µM)
Outline: as §1

[3] = compound: COc1cc2ncn(-c3cc(OCc4ccccc4C(F)(F)F)c(C(N)=O)s3)c2cc1OC + O=C(c1cc(Cc2n[nH]c(=O)c3ccccc23)ccc1F)N1CCN(C(=O)C2CC2)CC1 [Olaparib] (partner 8 µM)
Outline: as §1

[4] = compound: COc1cc2ncn(-c3cc(OCc4ccccc4C(F)(F)F)c(C(N)=O)s3)c2cc1OC + CS(=O)(=O)N1CCN(Cc2cc3nc(-c4cccc5[nH]ncc45)nc(N4CCOCC4)c3s2)CC1 [Pictilisib] (partner 1 µM)
Outline: as §1

Row | Cell Line | relative viability ([1]; first compound 0.05 µM) | relative viability ([1]; first compound 0.1581 µM) | relative viability ([1]; first compound 0.5 µM) | relative viability ([1]; first compound 1.581 µM) | relative viability ([1]; first compound 5 µM) | relative viability ([2]; first compound 0.05 µM) | relative viability ([2]; first compound 0.1581 µM) | relative viability ([2]; first compound 0.5 µM) | relative viability ([2]; first compound 1.581 µM) | relative viability ([2]; first compound 5 µM) | relative viability ([3]; first compound 0.05 µM) | relative viability ([3]; first compound 0.1581 µM) | relative viability ([3]; first compound 0.5 µM) | relative viability ([3]; first compound 1.581 µM) | relative viability ([3]; first compound 5 µM) | relative viability ([4]; first compound 0.05 µM) | relative viability ([4]; first compound 0.1581 µM) | relative viability ([4]; first compound 0.5 µM) | relative viability ([4]; first compound 1.581 µM) | relative viability ([4]; first compound 5 µM)
1 | NCI-H727 | 1.05 | 0.835 | 0.583 | 0.317 | 0.381 | 0.431 | 0.377 | 0.338 | 0.385 | 0.396 | 0.676 | 0.672 | 0.68 | 0.489 | 0.535 | 0.392 | 0.373 | 0.403 | 0.245 | 0.188
2 | NCI-H838 | 0.979 | 0.776 | 0.525 | 0.132 | 0.0869 | 0.518 | 0.523 | 0.412 | 0.192 | 0.0837 | 0.491 | 0.679 | 0.365 | 0.0997 | 0.121 | 0.514 | 0.519 | 0.478 | 0.14 | 0.0851
3 | NCI-H1355 | 1.15 | 1.15 | 0.95 | 0.232 | 0.164 | 0.274 | 0.403 | 0.326 | 0.176 | 0.127 | 0.486 | 0.671 | 0.3 | 0.15 | 0.128 | 0.499 | 0.399 | 0.385 | 0.182 | 0.151
4 | NCI-H1437 | 0.526 | 0.38 | 0.145 | 0.148 | 0.107 | 0.577 | 0.376 | 0.19 | 0.205 | 0.234 | 0.658 | 0.511 | 0.272 | 0.232 | 0.194 | 0.533 | 0.392 | 0.307 | 0.0976 | 0.0782
5 | NCI-H1650 | 0.222 | 0.184 | 0.185 | 0.175 | 0.172 | 0.631 | 0.515 | 0.35 | 0.143 | 0.139 | 0.757 | 0.659 | 0.305 | 0.114 | 0.204 | 0.52 | 0.615 | 0.322 | 0.156 | 0.146
6 | NCI-H1651 | 1.05 | 0.9 | 0.994 | 0.708 | 0.256 | 0.86 | 0.788 | 0.755 | 0.593 | 0.702 | 0.18 | 0.157 | 0.15 | 0.14 | 0.153 | 0.662 | 0.7 | 0.616 | 0.111 | 0.102
7 | NCI-H1666 | 0.899 | 0.801 | 0.489 | 0.28 | 0.299 | 0.837 | 0.776 | 0.653 | 0.455 | 0.41 | 0.79 | 0.786 | 0.622 | 0.56 | 0.466 | 0.404 | 0.38 | 0.332 | 0.188 | 0.193
